Patent US6759207B2, “Fluorogenic or fluorescent reporter molecules and their applications for whole-cell fluorescence screening assays for caspases and other enzymes and the use thereof” (Cytovia, Inc., priority 1997, dated 2004)
Each block holds one compound with its values, some of them ahead of it. Peptide text beside a SMILES is read from it. * marks the point of attachment. NH(Rh110(N'-COOEt)) = CCOC(=O)Nc1ccc2c(c1)Oc1cc(N*)ccc1C21OC(=O)c2ccccc21

How the values were obtained:
HL-60 cells [1] = test: Staining of apoptotic HL-60 cells by caspase-3 substrate (whole-cell assay, microscopy); assay type: cell-based; conditions: 50 μM substrate
Protocol: (§1) The ability of N-Ac-DEVD-N′-octyloxycarbonyl-R110 SEQ ID NO:5 to detect caspase activation in intact cells was tested using apoptotic HL-60 and Jurkat cells. These whole-cell assays were carried out in two stages: 1) induction of apoptosis; 2) incubation with the substrate. For HL-60 cells, apoptosis was induced by treatment with 10 μg/ml vinblastine for 4 hours. Control samples were treated with DMSO. For Jurkat cells, apoptosis was induced by treatment with 500 ng/ml agonistic antiFas antibody for 2 hours. Control samples were treated with PBS. Following apoptosis induction, the cells were incubated with 50 μM N-Ac-DEVD-N′-octyloxycarbonyl-R110 SEQ ID NO:5 in caspase assay buffer (40 mM PIPES, pH 7.4; 100 mM NaCl; 10% sucrose; 1 mM EDTA; 10 mM DTT). The cells were than transferred to a glass microslide and viewed by epifluorescent illumination on a Nikon inverted microscope.

[2] = system: apoptotic HL-60 cell lysates; test: Cleavage of caspase-3 substrates by apoptotic HL-60 cell lysates; assay type: biochemical; conditions: 10 μM or 50 μM substrate, 37° C., vinblastine treated HL-60 cell lysates
Protocol: (§2) The caspase substrates were assayed by recombinant caspase-3 and by lysates prepared from apoptotic HL-60 cells. The assays were carried out at 37° C. in 96-well plates in a 100 μL incubation containing 30 μL of caspase-3 preparation or cell lysate, 10 μM or 50 μM of the substrate, and caspase assay buffer (40 mM 1,4-piperazinebis(ethansulfonic acid) (PIPES, Aldrich Chemical Company) pH 7.2; 100 mM NaCl; 10% sucrose; 0.1% CHAPS; 1 mM EDTA; 10 mM DTT). At the end of the incubation period, the fluorescence was measured on a Bio-Tek FL500 fluorescence microplate reader using excitation and emission wavelengths of 485 and 530 nm, respectively. Two different controls were run: 1) an enzyme blank consisting of samples containing substrate, but without enzyme or cell lysate; 2) an inhibitor control, consisting of samples which contained the caspase inhibitor, Ac-DEVD-CHO (f.c., 10 μM).

[3] = target: T1, recombinant human caspase-3 (Homo sapiens, UniProt P42574); test: Cleavage of caspase-3 substrates by recombinant human caspase-3; assay type: biochemical; conditions: 10 μM or 50 μM substrate, 37° C.
T1 sequence (P42574 29-175 limits assumed): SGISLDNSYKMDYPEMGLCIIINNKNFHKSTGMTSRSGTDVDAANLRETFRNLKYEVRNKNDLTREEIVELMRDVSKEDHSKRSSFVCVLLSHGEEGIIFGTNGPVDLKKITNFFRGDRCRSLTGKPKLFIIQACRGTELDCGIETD
T1 sequence (P42574 176-277 limits assumed): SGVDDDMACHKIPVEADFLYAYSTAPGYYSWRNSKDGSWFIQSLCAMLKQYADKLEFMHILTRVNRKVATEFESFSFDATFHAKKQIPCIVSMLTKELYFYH
Protocol: as §2

Jurkat cells [4] = test: Cleavage of caspase-3 substrate by whole apoptotic Jurkat cells (plate reader); assay type: cell-based
Protocol: In order to quantitate the cleavage of N-Ac-[…]-N-octyloxycarbonyl-R110 SEQ ID NO:5 by whole cells, an assay was performed in which the fluorescent signal generated from this substrate by apoptotic Jurkat cells was measured in a spectrofluorometric plate reader. Jurkat cells were incubated for varying times in 96-well plates with 500 ng/ml antiFas antibody to induce apoptosis. Control cells were incubated with PBS. At the end of the treatment period, the cells were harvested, centrifuged in 1.5 ml tubes and resuspended in 25 μL of medium containing 1% FBS. 25 μL of caspase buffer containing 50 μM N-Ac-DEVD-N′-octyloxycarbonyl R110 SEQ ID NO:5 was added, and the cells were incubated for one hour. At the end of the incubation period, three 5 μL aliquots from each time point were placed in 96-well plates and the fluorescence was measured at excitation/emission wavelength of 485/530 nm. […] However, cells treated with antiFas gave a detectable fluorescent signal at about one hour after apoptosis induction, and the signal continued to increase up to the 2 hour timepoint, with a signal to background ratio of about 7.

Jurkat cells [5] = test: Staining of apoptotic Jurkat cells by caspase-3 substrate (whole-cell assay, microscopy); assay type: cell-based; conditions: 50 μM substrate
Protocol: as §1

HL-60 cells [6] = test: Uptake and cleavage of aminopeptidase substrate by HL-60 cells; assay type: cell-based; conditions: 10 μM substrate, 3 hours at 37° C.; for fluorescence of cells under microscope: FIGS. 7A-B; for Counts/μg protein: excitation 485 nm, emission 525 nm
Protocol: HL-60 cells were placed in 5 ml of Iscove's medium (without serum or phenol-red) containing 10 μM N-G-N′-octyloxycarbonyl-R110 or 10 μM N-Z-G-N-octyloxycarbonyl-R110. Three million HL-60 cells were incubated for 3 hours at 37° C. in a CO2 incubator, recovered by centrifugation, and washed in 50 μL of ice-cold medium. The cells were re-centrifuged and the final pellet was resuspended in 50 μL of fresh medium. Aliquots of each cell suspension were placed in a microtiter 96-well plate and read on a Wallac 1420 microplate reader with excitation wavelength at 485 nm, emission wavelength at 525 nm. Aliquots of each cell suspension were also placed on microslides and viewed on a Nikon inverted microscope with epifluorescent illumination. […] There was no signal from the cells incubated with 10 μM N-Z-G-N′-octyloxycarbonyl-R110.

[7] = system: HL-60 cell lysates (aminopeptidases); test: Cleavage of aminopeptidase substrate by HL-60 cell lysates (microtiter plate assay); assay type: biochemical; conditions: FIG. 6
Protocol: Aminopeptidases are present in many cells and sequentially remove unblocked amino acid residues from peptides, starting from the N-terminus. Peptides with blocked amino termini are not cleaved. HL-60 lysates were prepared by homogenizing HL-60 cells in caspase buffer, and the ability of these lysates to cleave N-Z-G-N′-octyloxycarbonyl R110 and N-G-N′-octyloxycarbonyl-R110 was tested in a microtiter plate assay.

[8] = target: T2, recombinant human caspase-6 (Homo sapiens, UniProt P55212); test: Cleavage of caspase-8 substrate by recombinant human caspase-6; assay type: biochemical; conditions: 10 μM substrate, 37° C.
T2 sequence (P55212 24-179 limits assumed): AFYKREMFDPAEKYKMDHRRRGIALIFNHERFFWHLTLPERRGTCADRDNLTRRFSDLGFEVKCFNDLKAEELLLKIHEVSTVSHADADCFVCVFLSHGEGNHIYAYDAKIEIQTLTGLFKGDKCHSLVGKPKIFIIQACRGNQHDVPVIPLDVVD
T2 sequence (P55212 194-293 limits assumed): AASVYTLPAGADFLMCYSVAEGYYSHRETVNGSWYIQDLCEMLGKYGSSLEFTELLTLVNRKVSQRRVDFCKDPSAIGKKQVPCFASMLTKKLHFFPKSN
Protocol: (§3) N-Ac-LEVD-N-ethoxycarbonyl R110 SEQ ID NO:9 was assayed by recombinant human caspase-3, 6, 7, and 8. The assays were carried out at 37° C. in 96-well plates in a 100 μL incubation containing recombinant human caspase, 10 μM of N-Ac-LEVD-N′-ethoxycarbonyl R110 SEQ ID NO:9, and caspase assay buffer (40 mM PIPES, pH 7.2; 100 mM NaCl; 10% sucrose; 0.1% CHAPS; 1 mM EDTA; 10 mM DTT). At the end of the incubation period, the fluorescence was determined on a Bio-Tek FL500 fluorescence microplate reader using excitation and emission wavelengths of 485 and 530 nm, respectively. In order to correct for the endogenous fluorescence of the uncleaved substrate, controls were run which consisted of samples containing 10 μM N-Ac-LEVD-N′-ethoxycarbonyl R110 SEQ ID NO:9 without enzyme (“enzyme blanks”). Additional controls included samples containing the caspase inhibitor Ac-DEVD-CHO SEQ ID NO:5. […] Caspase-3 cleaved N-Ac-LEVD-N′-ethoxycarbonyl R110 SEQ ID NO:9 less efficiently, yielding a signal that was about 5-fold above the enzyme blank value.

[9] = target: T3, recombinant human caspase-7 (Homo sapiens, UniProt P55210); test: Cleavage of caspase-8 substrate by recombinant human caspase-7; assay type: biochemical; conditions: 10 μM substrate, 37° C.
T3 sequence (P55210 24-198 limits assumed): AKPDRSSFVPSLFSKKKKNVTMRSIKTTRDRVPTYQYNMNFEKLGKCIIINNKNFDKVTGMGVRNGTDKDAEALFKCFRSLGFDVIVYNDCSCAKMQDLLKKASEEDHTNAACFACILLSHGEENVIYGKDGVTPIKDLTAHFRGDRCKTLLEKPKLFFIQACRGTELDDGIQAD
T3 sequence (P55210 207-303 limits assumed): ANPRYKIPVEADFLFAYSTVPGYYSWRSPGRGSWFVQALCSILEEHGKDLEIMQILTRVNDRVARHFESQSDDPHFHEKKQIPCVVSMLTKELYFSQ
Protocol: as §3

[10] = target: T1, recombinant human caspase-3; test: Cleavage of caspase-8 substrate by recombinant human caspase-3; assay type: biochemical; conditions: 10 μM substrate, 37° C.
Protocol: as §3

[11] = target: recombinant human caspase-8 (Homo sapiens, UniProt Q14790); test: Cleavage of caspase-8 substrate by recombinant human caspase-8; assay type: biochemical; conditions: 10 μM substrate, 37° C.
Protocol: as §3

Sequence of recombinant human caspase-8 (Q14790 217-374 limits assumed): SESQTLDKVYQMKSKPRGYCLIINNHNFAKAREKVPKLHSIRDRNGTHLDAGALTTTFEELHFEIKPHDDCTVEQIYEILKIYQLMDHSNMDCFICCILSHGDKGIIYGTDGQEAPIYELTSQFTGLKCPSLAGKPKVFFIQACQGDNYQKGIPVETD
Sequence of recombinant human caspase-8 (Q14790 385-479 limits assumed): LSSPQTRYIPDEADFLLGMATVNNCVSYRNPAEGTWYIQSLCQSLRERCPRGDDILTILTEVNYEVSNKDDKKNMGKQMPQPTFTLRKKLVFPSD

Cleavage by Caspase-3 [3]: Good
Structure (SMILES): CCCCCCCCOC(=O)Nc1ccc2c(c1)Oc1cc(NC(=O)[C@H](CC(=O)O)NC(=O)[C@@H](NC(=O)[C@H](CCC(=O)O)NC(=O)[C@H](CC(=O)O)NC(C)=O)C(C)C)ccc1C21OC(=O)c2ccccc21 (stereo partly drawn) [N-Ac-DEVD-N′-octyloxycarbonyl-R110, N-(Ac-Asp-Glu-Val-Asp)-N′-octyloxycarbonyl-Rhodamine 110]
staining of vinblastine-treated HL-60 cells (HL-60 cells [1]; apoptosis induced by 10 μg/ml vinblastine for 4 hours): intensely stained
staining of DMSO-treated HL-60 cells (HL-60 cells [1]; control cells): some staining
Cleavage by Apoptotic Lysates [2]: Good
signal to background ratio (Jurkat cells [4]; antiFas-treated Jurkat cells, 2 hour timepoint, 485/530 nm): about 7
fluorescent signal of PBS-treated cells (Jurkat cells [4]; control Jurkat cells): small fluorescent signal which did not increase
staining of antiFas-treated Jurkat cells (Jurkat cells [5]; 500 ng/ml agonistic antiFas antibody for 2 hours): intense staining
staining of control Jurkat cells (Jurkat cells [5]; PBS-treated): only light staining

Structure (SMILES): CCCCCCCCOC(=O)Nc1ccc2c(c1)Oc1cc(NC(=O)CNC(=O)OCc3ccccc3)ccc1C21OC(=O)c2ccccc21 (centres unmarked) [N-Z-G-N′-octyloxycarbonyl-R110, N-[Z-Gly]-N′-octyloxycarbonyl-Rhodamine-110]
signal from cells (microplate reader) (HL-60 cells [6]): no signal
fluorescence of cells under microscope (HL-60 cells [6]): no fluorescence signal was observed
Counts/μg protein (HL-60 cells [6]): 0 Counts/μg protein
cleavage by HL-60 cell lysates [7]: no signal was generated

Structure (SMILES): Br.CCCCCCCCOC(=O)Nc1ccc2c(c1)Oc1cc(NC(=O)CN)ccc1C21OC(=O)c2ccccc21 (centres unmarked) [N-G-N′-octyloxycarbonyl-R110, N-Gly-N′-octyloxycarbonyl-Rhodamine-110 HBr]
signal from cells (microplate reader) (HL-60 cells [6]): showed signal
fluorescence of cells under microscope (HL-60 cells [6]): showed fluorescence under microscope
Counts/μg protein (HL-60 cells [6]): 12.98 Counts/μg protein
cleavage by HL-60 cell lysates [7]: readily cleaved

signal to background ratio [8]: about 13
fluorescent signal [9]: virtually no signal
signal above the enzyme blank value [10]: about 5 fold
signal to background ratio [11]: about 26
Structure (SMILES): CCOC(=O)Nc1ccc2c(c1)Oc1cc(NC(=O)[C@H](CC(=O)O)NC(=O)[C@@H](NC(=O)[C@H](CCC(=O)O)NC(=O)[C@H](CC(C)C)NC(C)=O)C(C)C)ccc1C21OC(=O)c2ccccc21 (stereo partly drawn) [N-Ac-LEVD-N′-ethoxycarbonyl R110, N-(Ac-Leu-Glu-Val-Asp)-N′-ethoxycarbonyl-Rhodamine 110] (Ac-LEVD-{NH(Rh110(N'-COOEt))})
